Laboratory results reported in US8324176B2, “Pyrazole derivatives, medicinal composition containing the same, medicinal use thereof, and intermediate for production thereof” (Kissei Pharmaceutical Co., Ltd., priority 2002, dated 2012).

Legend:
diabetic rats = test: Assay for inhibitory effects on blood glucose level increase in rats (liquid meal tolerance test); assay type: in vivo, rat; conditions: test compound 1 mg/kg orally, liquid meal 17.25 kcal/kg, mean±S.E.; for Plasma glucose concentration 0.5 h: 0.5 hour after the drug administration; for Plasma glucose concentration 1 h: 1 hour after the drug administration
Method: Assay for Inhibitory Effects on Blood Glucose Level Increase in Rats
1) Preparation of Diabetic Rat Model
Male wistar rats (Japan Charles River), aged 8 weeks old, were injected nicotinamide (230 mg/kg) intraperitoneally. Fifteen minutes after injection, they were injected streptozotocin (85 mg/kg) intravenously from tail vain under anesthesia with ether. After a week, rats were fasted overnight and then glucose tolerance test (2 g/kg) was done.
2) Liquid Meal Tolerance Test
After overnight fasted, the diabetic rats were orally administered a test compound (1 mg/kg), which was dissolved in distilled water or 0.5% aqueous carboxymethylcellulose solution, in the drug-treating group, or distilled water or 0.5% aqueous carboxymethylcellulose solution alone in a control group. Immediately after the compound administration, 17.25 kcal/kg of liquid meal (No. 038, Control diet, assorted with dextrin and maltose; Oriental Yeast Co., Ltd.) was loaded orally. The blood was collected from tail artery immediately before and after administration with the time course, and treated with heparin immediately. The blood was centrifuged, and the plasma was collected to quantify the plasma glucose concentration by glucose oxidase method. The values in the Table are presented as the mean±S.E.

human SGLT1 = target: T1, human SGLT1 (Homo sapiens, UniProt P13866); test: Assay for inhibitory effects on human SGLT1 activity (uptake of methyl-α-D-glucopyranoside in CS1-5-11D cells); assay type: cell-based; conditions: CHO-K1 cells stably expressing human SGLT1 (CS1-5-11D); 1 mM α-MG uptake, 37° C., 1 hour
T1 construct: expressed in transfected cells
T1 sequence (P13866 1-664): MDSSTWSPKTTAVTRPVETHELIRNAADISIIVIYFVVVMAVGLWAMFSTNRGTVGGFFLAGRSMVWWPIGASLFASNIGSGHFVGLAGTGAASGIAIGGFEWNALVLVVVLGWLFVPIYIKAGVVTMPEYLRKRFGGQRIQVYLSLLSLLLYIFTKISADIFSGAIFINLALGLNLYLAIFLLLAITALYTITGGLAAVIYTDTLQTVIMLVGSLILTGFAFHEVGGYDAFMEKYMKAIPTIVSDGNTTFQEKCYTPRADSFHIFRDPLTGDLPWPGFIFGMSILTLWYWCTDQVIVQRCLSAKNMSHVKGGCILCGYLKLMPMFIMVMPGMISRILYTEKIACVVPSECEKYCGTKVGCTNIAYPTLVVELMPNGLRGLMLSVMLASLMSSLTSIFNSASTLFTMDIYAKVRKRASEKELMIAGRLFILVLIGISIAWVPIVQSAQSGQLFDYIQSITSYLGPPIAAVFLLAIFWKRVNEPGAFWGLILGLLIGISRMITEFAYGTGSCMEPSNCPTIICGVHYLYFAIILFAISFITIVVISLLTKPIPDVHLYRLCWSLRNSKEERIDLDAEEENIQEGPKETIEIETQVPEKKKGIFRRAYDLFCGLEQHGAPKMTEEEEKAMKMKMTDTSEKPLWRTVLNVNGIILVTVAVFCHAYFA
Method: Assay for Inhibitory Effects on Human SGLT1 Activity
1) Cloning and Construction of the Vector Expressing Human SGLT1
The cDNA library was prepared for PCR amplification by reverse transcription from total RNA deprived from human small intestine (Ori gene) using oligo-dT as a primer.
2) Establishment of Cell Line Stably Expressing Human SGLT1
The expression vector of human SGLT1 was digested by Sca I into a linear DNA. The linear DNA was transfected into CHO-K1 cells by means of lipofection (Effectene Transfection Reagent: QIAGEN). Neomycin resistant cell lines were selected by culture in the medium containing G418 (1 mg/mL, LIFE TECHNOLOGIES), and then the activity against the uptake of methyl-α-D-glucopyranoside was measured by the method described below. […] CS1-5-11D cells were cultured in the presence of G418 at 200 μg/mL.
3) Measurement of the Inhibitory Activity Against the Uptake of Methyl-α-D-glucopyranoside (α-MG)
CS1-5-11D cells were seeded into a 96-well culture plate at a density of 3×10^4 cells/well and cultured for 2 days, and were used in the uptake assay. A mixture of non-labeled (Sigma) and ^14C-labeled α-MG (Amersham Pharmcia Biotec) was added to the uptake buffer (pH 7.4: containing 140 mM sodium chloride, 2 mM potassium chloride, 1 mM calcium chloride, 1 mM magnesium chloride, 10 mM 2-[4-(2-hydroxyethyl)-1-piperazinyl]ethane sulfonic acid, and 5 mM tris(hydroxymethyl)aminomethane) at the final concentration of 1 mM. A test compound was dissolved in dimethyl sulfoxide, and then appropriately diluted with distilled water. The test compound solution was added to the uptake buffer containing 1 mM α-MG, and designated as a measurement buffer. For the control group, the measurement buffer without any test compound was prepared. For measuring the basal uptake, a basal uptake measurement buffer which contains 140 mM chorine chloride instead of sodium chloride was prepared. After removing the culture medium of CS1-5-11D cells, 180 μL of the pre-treatment buffer (the basal uptake buffer without α-MG) was added to each well and incubated at 37° C. for 10 minutes. After repeating the same treatment, the pre-treatment buffer was removed. To each well was added 75 μL of the measurement buffer or the basal uptake buffer was added and incubated at 37° C. for 1 hour. After removing the measurement buffer, cells were washed twice with 180 μL per well of the washing buffer (the basal uptake buffer containing 10 mM non-labeled α-MG). The cells were solubilized by 75 μL per well of 0.2 mol/L sodium hydroxide. The cell lysates were transferred into PicoPlates (Packard), and then added 150 μL of MicroScint-40 (Packard) and mixed. Radioactivity was measured by means of micro-scintillation counter TopCount (Packard). One hundred was set to the difference between the uptake in the control group and the basal uptake, and the uptake of methyl α-D-glucopyranoside a teach drug concentration were calculated.

Structure (SMILES)	Plasma glucose concentration 0.5 h (diabetic rats) [mg/dL]	Plasma glucose concentration 1 h (diabetic rats) [mg/dL]	IC50 (human SGLT1) [nM]
CC(C)c1[nH]nc(O[C@@H]2O[C@H](CO)[C@@H](O)[C@H](O)[C@H]2O)c1Cc1ccc(OCCCN)cc1 [Example 6, 4-{[4-(3-Aminopropoxy)phenyl]methyl}-3-(β-D-glucopyranosyloxy)-5-isopropyl-1H-pyrazole]	126 ± 12	140 ± 13	304
CC(C)c1[nH]nc(O[C@@H]2O[C@H](CO)[C@@H](O)[C@H](O)[C@H]2O)c1Cc1ccc(OCCCNS(C)(=O)=O)cc1 [Example 10, 3-(β-D-Glucopyranosyloxy)-5-isopropyl-4-({4-[3-(methanesulfonylamino)propoxy]phenyl}methyl)-1H-pyrazole]	145 ± 5	164 ± 6	169
CC(C)c1[nH]nc(O[C@@H]2O[C@H](CO)[C@@H](O)[C@H](O)[C@H]2O)c1Cc1ccc(OCCCNC(=O)CN)cc1 [Example 13, 4-({4-[3-(2-Aminoacetylamino)propoxy]phenyl}methyl)-3-(β-D-glucopyranosyloxy)-5-isopropyl-1H-pyrazole]	127 ± 7	135 ± 7	267
CC(C)c1[nH]nc(O[C@@H]2O[C@H](CO)[C@@H](O)[C@H](O)[C@H]2O)c1Cc1ccc(OCCCNC(=O)NC(C)(CO)CO)cc1 [Example 21, 3-(β-D-Glucopyranosyloxy)-4-{[4-(3-{3-[2-hydroxy-1-(hydroxymethyl)-1-(methyl)ethyl]ureido}propoxy)phenyl]-methyl}-5-isopropyl-1H-pyrazole]	211 ± 22	242 ± 35	127
CC(C)c1[nH]nc(O[C@@H]2O[C@H](CO)[C@@H](O)[C@H](O)[C@H]2O)c1Cc1ccc(OCCCNC(=O)NC(C)(C)CO)cc1 [Example 24, 3-(β-D-Glucopyranosyloxy)-4-{[4-(3-{3-[2-hydroxy-1,1-di(methyl)ethyl]ureido}propoxy)phenyl]methyl}-5-isopropyl-1H-pyrazole]	210 ± 33	228 ± 50	61
Cc1cc(OCCCN2CCN(CCO)CC2)ccc1Cc1c(O[C@@H]2O[C@H](CO)[C@@H](O)[C@H](O)[C@H]2O)n[nH]c1C(C)C [Example 35, 3-(β-D-Glucopyranosyloxy)-4-[(4-{3-[4-(2-hydroxyethyl)piperazin-1-yl]propoxy}-2-methylphenyl)methyl]-5-isopropyl-1H-pyrazole]	188 ± 16	229 ± 25	160
CC(C)c1[nH]nc(O[C@@H]2O[C@H](CO)[C@@H](O)[C@H](O)[C@H]2O)c1Cc1ccc(OCCCNC(=NC#N)NCCO)cc1 [Example 37, 4-[(4-{3-[2-Cyano-3-(2-hydroxyethyl)guanidino]propoxy}phenyl)methyl]-3-(β-D-glucopyranosyloxy)-5-isopropyl-1H-pyrazole]	231 ± 21	286 ± 31	158
Cc1cc(OCCCNCC(N)=O)ccc1Cc1c(O[C@@H]2O[C@H](CO)[C@@H](O)[C@H](O)[C@H]2O)n[nH]c1C(C)C [Example 45]	169 ± 18	182 ± 27	68
Cc1cc(OCCNCC(N)=O)ccc1Cc1c(O[C@@H]2O[C@H](CO)[C@@H](O)[C@H](O)[C@H]2O)n[nH]c1C(C)C [Example 49, 4-({4-[2-(Carbamoylmethylamino)ethoxy]-2-methylphenyl}methyl)-3-(1-D-glucopyranosyloxy)-5-isopropyl-1H-pyrazole]	–	–	148
Cc1cc(OCCNCCC(N)=O)ccc1Cc1c(O[C@@H]2O[C@H](CO)[C@@H](O)[C@H](O)[C@H]2O)n[nH]c1C(C)C [Example 50]	–	–	159
Cc1cc(OCCCNC(C)(C)C(N)=O)ccc1Cc1c(O[C@@H]2O[C@H](CO)[C@@H](O)[C@H](O)[C@H]2O)n[nH]c1C(C)C [Example 51, 4-[(4-{3-[1-Carbamoyl-1-(methyl)ethylamino]propoxy}-2-methylphenyl)methyl]-3-(β-D-glucopyranosyloxy)-5-isopropyl-1H-pyrazole]	–	–	22
Cc1cc(OCCCNC(=N)N)ccc1Cc1c(O[C@@H]2O[C@H](CO)[C@@H](O)[C@H](O)[C@H]2O)n[nH]c1C(C)C [Example 55, 3-(β-D-Glucopyranosyloxy)-4-{[4-(3-guanidinopropoxy)-2-methylphenyl]methyl}-5-isopropyl-1H-pyrazole]	200 ± 16	211 ± 18	98
Cc1cc(OCCCNC(C)(C)CO)ccc1Cc1c(O[C@@H]2O[C@H](CO)[C@@H](O)[C@H](O)[C@H]2O)n[nH]c1C(C)C [Example 57, 3-(β-D-Glucopyranosyloxy)-4-[(4-(3-[2-hydroxy-1,1-di(methyl)ethylamino]propoxy)-2-methylphenyl)methyl]-5-isopropyl-1H-pyrazole]	–	–	43
Cc1cc(OCCCNCCO)ccc1Cc1c(O[C@@H]2O[C@H](CO)[C@@H](O)[C@H](O)[C@H]2O)n[nH]c1C(C)C [Example 58, 3-(β-D-Glucopyranosyloxy)-4-({4-[3-(2-hydroxyethylamino)propoxy]-2-methylphenyl}methyl)-5-isopropyl-1H-pyrazole]	–	–	100
CC(C)c1[nH]nc(O[C@@H]2O[C@H](CO)[C@@H](O)[C@H](O)[C@H]2O)c1Cc1ccc(OCCCNC(C)(C)CO)cc1 [Example 61, 3-(β-D-Glucopyranosyloxy)-4-[(4-(3-[2-hydroxy-1,1-di(methyl)ethylamino]propoxy)phenyl)methyl]-5-isopropyl-1H-pyrazole]	–	–	199
Cc1cc(OCCNC(CO)CO)ccc1Cc1c(O[C@@H]2O[C@H](CO)[C@@H](O)[C@H](O)[C@H]2O)n[nH]c1C(C)C [Example 62, 3-(β-D-Glucopyranosyloxy)-4-[(4-{2-[2-hydroxy-1-(hydroxymethyl)ethylamino]ethoxy}-2-methylphenyl)methyl]-5-isopropyl-1H-pyrazole]	–	–	138
Cc1cc(OCCNCCO)ccc1Cc1c(O[C@@H]2O[C@H](CO)[C@@H](O)[C@H](O)[C@H]2O)n[nH]c1C(C)C [Example 63, 3-(β-D-Glucopyranosyloxy)-4-({4-[2-(2-hydroxyethylamino)ethoxy]-2-methylphenyl}methyl)-5-isopropyl-1H-pyrazole]	–	–	322
